Measurements: PubChem BioAssay (NCI)
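Exposure lasted 48 hours, with cells grown in 96-well plates and compounds tested at five concentrations. The concentration for 50% growth inhibition is given as GI50. The concentration for full growth arrest is given as TGI.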

Columns and labels:
Assay in all cases: growth of human tumour cells (NCI), 48 h
[1] = test system: SNB-75 CNS
[2] = test system: IGROV1 ovarian
[3] = test system: 786-0 renal
[4] = test system: TK-10 renal
[5] = test system: CCRF-CEM leukemia
[6] = test system: M14 melanoma
[7] = test system: ACHN renal
[8] = test system: HOP-62 NSCLC
[9] = test system: LOX IMVI melanoma
[10] = test system: NCI-H522 lung

SMILES	TGI [1]	TGI [2]	TGI [3]	TGI [4]	TGI [5]	TGI [6]	TGI [7]	TGI [8]	TGI [9]	GI50 [1]	GI50 [2]	GI50 [3]	GI50 [4]	GI50 [5]	GI50 [10]	TGI [10]	GI50 [6]	GI50 [7]	GI50 [8]	GI50 [9]
CC(=O)O[C@H]1CC2C=CC3C(CCC31)O2 (stereo partly specified)	> 100 µM	> 100 µM	> 100 µM	> 100 µM	> 100 µM	> 100 µM	> 100 µM	> 100 µM	> 100 µM											
CCCCCCCC(=O)[O][Hg][CH2]C1COC([CH2][Hg][O]C(=O)CCCCCCC)CO1 (stereo unspecified)	34.6 µM	38.3 µM	30.4 µM	33.7 µM	> 100 µM	30 µM	26.9 µM	30.9 µM		15.3 µM	18 µM	7.95 µM	19.6 µM	1.91 µM	4.8 µM	> 100 µM	16.4 µM	13.9 µM	17.2 µM	
O=[N+]([O-])c1cc2c([N+](=O)[O-])cccc2o1			5.92 µM	23.8 µM	5.05 µM	24.9 µM	10.6 µM	37.2 µM	> 100 µM							1.92 µM				
Fc1ccc(Nc2nc3ccccc3c3occc23)cc1		35.1 µM	10.6 µM	6.67 µM		13.7 µM	15.8 µM	13.8 µM	17.9 µM		2.62 µM	1.03 µM	2.06 µM		13.7 µM	27.8 µM	0.873 µM	1.4 µM	2.31 µM	3.41 µM
COc1ccc(CCc2cc(OC)c(O)c(OC)c2)cc1	> 100 µM	> 100 µM	> 100 µM		> 100 µM	> 100 µM	> 100 µM	> 100 µM								> 100 µM				
c1ccc2c(NCCCCCCNc3cccc4ccccc34)cccc2c1	> 100 µM	> 100 µM	> 100 µM	> 100 µM	> 100 µM	> 100 µM	> 100 µM	> 100 µM								> 100 µM				
COC(=O)C(=O)C(C(=O)C(=O)Nc1cc(C)ccc1C)c1nc2ccc(C(=O)c3ccccc3)cc2[nH]c1=O (stereo unspecified)		> 100 µM	> 100 µM	> 100 µM	> 100 µM	> 100 µM	> 100 µM									> 100 µM				
c1ccc(N/N=C2\NN=C(c3ccccc3)CS2)cc1		32.3 µM	33.6 µM	26.5 µM	54.9 µM	24.8 µM	19.1 µM	> 100 µM	15.3 µM							10.8 µM				
COc1cc(/C=C2/C(=O)N(C(=O)OCc3ccccc3)C(Cc3cc(OC)c(OC)c(C)c3OC)C(=O)N2Cc2ccccc2)c(OC)c(C)c1OC (stereo unspecified)	> 100 µM	> 100 µM	> 100 µM	> 100 µM		> 100 µM	> 100 µM	> 100 µM	> 100 µM							> 100 µM				
COc1cnc2c(c1)C(=O)c1c-2n(CCCN2CCNCC2)c(=O)c2cc([N+](=O)[O-])ccc12	1.97 µM		1.16 µM	2.39 µM	1.78 µM	1.49 µM	1.22 µM	0.572 µM		0.429 µM		0.209 µM	1.11 µM	0.143 µM	0.506 µM	2.03 µM	0.279 µM	0.117 µM	0.065 µM	
CC1C2CC=CC(=O)[C@@]2(C)CCC12OCCO2 (stereo partly specified)	> 100 µM	> 100 µM	> 100 µM	> 100 µM	> 100 µM	> 100 µM	> 100 µM	> 100 µM								> 100 µM				
CC1=C([Se]CC(OC(=O)[C@@H](CO)NC(=O)OC(C)(C)C)C(=O)NCCCCCC(=O)OCc2ccccc2)C(=O)c2ccccc2C1=O (stereo partly specified)	2.55 µM	3.37 µM	3.53 µM	3.47 µM		3.3 µM	3.07 µM	1.75 µM	3.72 µM	1.29 µM	1.79 µM	2.08 µM	2.04 µM		2.02 µM	3.5 µM	1.79 µM	1.65 µM	0.414 µM	1.84 µM
COc1cccc(Nc2nccc(-c3cnn4ncccc34)n2)c1	0.122 µM	> 25 µM	> 25 µM			0.34 µM	> 25 µM	0.532 µM	> 25 µM	0.0463 µM	0.101 µM	0.0871 µM		0.0723 µM	0.122 µM	0.767 µM	0.0777 µM	0.0456 µM	0.0798 µM	0.0275 µM
CCN(CC)CCNc1ccc2nc(C)n3c4ccc(O)cc4c(=O)c1c23	14.7 µM	15.5 µM	10.4 µM			16.2 µM	3.78 µM	18.8 µM	2.04 µM							2.24 µM				
COC[C@H](C)N=CN1CCc2ccccc2C1(Cc1ccccc1)Cc1ccccc1	43 µM	> 100 µM	30.3 µM	38.8 µM	56.7 µM	22.7 µM	59.8 µM	95.4 µM								26.7 µM				
C[C@@H](Oc1cc(-n2cnc3ccc(OC[C@@H](O)CO)cc32)sc1C(N)=O)c1ccccc1Cl	4.41 µM	> 25 µM	> 25 µM	10.7 µM	24.6 µM	> 25 µM	> 25 µM	> 25 µM	> 25 µM	0.29 µM	0.214 µM	0.669 µM	0.894 µM	0.0127 µM			0.0993 µM	6.11 µM	0.11 µM	0.0931 µM
CN1CCN(Cc2cc(NC(=O)c3cccc(C#Cc4cccc5[nH]nc(N)c45)c3)cc(C(F)(F)F)c2)CC1	2.92 µM	4.07 µM	3.39 µM	3.38 µM		2.9 µM	3.02 µM	3 µM		1.5 µM	2.05 µM	1.91 µM	1.96 µM		1.74 µM	3.34 µM	1.35 µM	1.66 µM	1.55 µM	
Cc1ccc(NC(=O)OCC(COc2ccc(Cl)cc2Cl)OC(=O)Nc2ccc(C)cc2)cc1 (stereo unspecified)	68.2 µM	> 100 µM	> 100 µM			> 100 µM	> 100 µM	> 100 µM												
CCOC(=O)C(=O)Nc1ccccc1C(C)C	> 100 µM	> 100 µM	> 100 µM	> 100 µM	> 100 µM	> 100 µM	> 100 µM	> 100 µM								> 100 µM				
CCOC1CC2OC(=O)C1C=C2C(=O)OC (stereo unspecified)		> 100 µM	75.9 µM	84.1 µM	56.6 µM	38.6 µM	> 100 µM	> 100 µM	> 100 µM							28.1 µM				
Cc1ccccc1C1CC(c2ccccc2)=NO1 (stereo unspecified)	> 100 µM	> 100 µM	> 100 µM	> 100 µM	> 100 µM	> 100 µM	> 100 µM	> 100 µM								> 100 µM				
COCCn1cc(-c2csc(-c3c[nH]c4ccc(Br)cc34)n2)c2cccnc21	29.4 µM	> 100 µM	> 100 µM			60.2 µM	> 100 µM	47.7 µM	> 100 µM	4.72 µM	4.06 µM	4.03 µM			2.17 µM	6.93 µM	3.27 µM	3.04 µM	7.98 µM	2.67 µM
CC(C)C1N2CCCCC2[C@@H]2c3[nH]c4ccccc4c3CCN12 (stereo partly specified)	> 100 µM	> 100 µM	> 100 µM		> 100 µM	> 100 µM	> 100 µM	> 100 µM												
Cc1ccc(S(=O)(=O)Nc2ccc(-c3cc(-c4cccc(F)c4)c(C#N)c(N)n3)cc2)cc1		2.75 µM	3.12 µM	3.17 µM	30.8 µM	4.38 µM	2.92 µM	17.2 µM	3.66 µM		1.35 µM	1.71 µM	1.66 µM	2.26 µM	1.69 µM	4.91 µM	2.01 µM	1.58 µM	4.25 µM	1.82 µM
COc1cc(/C=C2\C[C@H]3[C@@H]4CC=C5C[C@@H](OC(C)=O)CC[C@]5(C)[C@H]4CC[C@]3(C)[C@H]2OC(C)=O)ccc1OCCN1CCCC1		> 50 µM	18.3 µM	19.7 µM	18.8 µM	30.4 µM		20.5 µM			19.3 µM	8.82 µM	9.07 µM	0.935 µM	18.1 µM	> 50 µM	8.56 µM		9.43 µM	
O=C(O)CCC(C(=O)O)N1C(=O)C2C3CCC(C3)C2C1=O (stereo unspecified)	> 100 µM	> 100 µM	> 100 µM	> 100 µM		> 100 µM	> 100 µM	> 100 µM	> 100 µM							> 100 µM				
C/C(=N\NC(=O)CC(=O)N(C(=O)c1ccc(Cl)cc1)c1ccc(C)cc1)c1ccccc1O	43.9 µM	> 100 µM	> 100 µM	> 100 µM	> 100 µM	> 100 µM	> 100 µM	> 100 µM								> 100 µM				
C1C[OH+]CC[OH+]CCNCC[OH+]CC[OH+]CCN1.Cl.[Cl-].[Pt+4]		> 100 µM	> 100 µM	> 100 µM	> 100 µM	> 100 µM	> 100 µM		> 100 µM		> 100 µM	> 100 µM	> 100 µM	> 100 µM	2.27 µM	6.47 µM	> 100 µM	> 100 µM		> 100 µM
